Results reported in US6682545B1, “System and device for preventing restenosis in body vessels” (The Penn State Research Foundation, priority 1999, dated 2004).
Entries after “also recorded” stand apart in the source; their conditions may differ.

Experiments:
[1] = system: PCNA positive vascular smooth muscle cells; experiment: PCNA immunohistochemistry of carotid arteries after angioplasty; assay type: in vivo, rabbit; conditions: neointimal layer, coated balloon-injured carotid artery (balloon-injured 2.8%±0.1%, control 0.2%±0.1%)
Text: The effects of ceramide treatment upon VSM cell growth in vivo were also investigated. Imunohistochemical techniques were employed to identify VSM using smooth muscle cell-specific actin antibody (FIGS. 4A-B) and cell growth using proliferating cell nuclear antigen (PCNA) antibody (FIGS. 4C-F). […] PCNA is synthesized in early G1 and S phases of the cell cycle, and thus can be used as a marker for cell proliferation. In FIGS. 4C-F, representative photomicrographs depicting PCNA positive staining are shown for control, balloon-injured, ceramide-treated and dihydroceramide-treated carotid arteries, respectively. […] C6-ceramide (0.6%±0.2%) but not dihydro-C6-ceramide (1.9%±0.3%) diminished the number of PCNA positive cells in the neointimal layer but not in the medial layer of the carotid artery.
Specifically, in FIG. 4, ceramide-treated catheters reduced PCNA expression in vascular smooth muscle cells after angioplasty. Smooth muscle actin expression was analyzed by immunohistochemistry utilizing a monoclonal anti-alpha smooth muscle antibody, and PCNA positive cell numbers were assessed with a primary mouse monoclonal IgG2a antibody for PCNA. […] These immunohistochemical micrographs are representative of four separate experiments. […]

[2] = system: rat glomerular mesangial cells; conditions: cited from earlier work
[3] = system: neointimal hyperplasia in rabbit carotid arteries; experiment: Restenosis after balloon angioplasty with ceramide-coated embolectomy catheter balloon; assay type: in vivo, New Zealand white rabbits; conditions: rabbit carotid artery, 2 weeks post balloon injury
Text: Experiments were designed to evaluate the therapeutic potential of ceramide-coated embolectomy catheters upon restenosis after balloon angioplasty. Initial studies assessed the extent of restenosis in rabbit carotid arteries after balloon angioplasty as a function of time. Animals were sacrificed 1, 2, 4 and 6 weeks after balloon injury. Marked neointimal hyperplasia was observed as early as 1 week and peaked at 4 weeks (FIG. 2A). […] FIGS. 2B-E illustrate hematoxylin and eosin stained cryostat sections of rabbit carotid arteries. […] Furthermore, it may be theorized that the effects of ceramide are due to biochemical actions and not lipophilic properties.
Initial experiments optimized the methods to induce restenosis after angioplasty in carotid arteries from New Zealand white rabbits. Twenty-one rabbits were divided into three experimental groups, undergoing either balloon angioplasty with a vehicle-treated catheter, a C6-ceramide-treated catheter or a dihydro-C6-ceramide-treated catheter. Each rabbit underwent identical procedures to denude the common carotid artery of endothelium and establish the cellular conditions to promote restenosis. The right common carotid served as the sham control while the left carotid served as the experimental side. […] FIG. 2A represents the time course of restenosis after angioplasty while FIGS. 2B-2E depict representative H/E stained sections. […] The scale for these photomicrographs is 200 microns. FIG. 2F quantifies the extent of restenotic lesions.

ERK2 = ERK2 phosphorylation in excised carotid arteries after angioplasty (Western blot); assay type: in vivo; conditions: ceramide-coated balloon angioplasty, rabbit carotid arteries
Description: (§1) Thus, to elucidate mechanisms by which ceramide prevents restenosis, the phosphorylation states of ERK2 and PKBα were investigated using freshly excised carotid arteries after angioplasty (FIG. 5). Phosphorylation of ERK2 and PKBα were increased at 15 minutes and 24 hours post-balloon injury. The sustained phosphorylation of these kinases most likely reflects continuous remodeling of damaged arteries. […] Thus, acute ceramide therapy may directly modulate kinases or regulate putative ceramide-activated protein phosphatases that down-regulate these signaling pathways.
(§2) Specifically, in FIG. 5, ERK2 and PKBα phosphorylation was diminished after ceramide-coated balloon angioplasty in rabbit carotid arteries. Panel A depicts a representative Western blot for ERK-2 and PKBα probed using phosphorylation-specific antibodies. Lysates from NIH3T3 cells treated with or without PDGF were used as positive and negative controls, respectively. This immunoblot is representative of similar experiments using a total of 8 animals. Panels B-C quantifies the immunoblot data.

[4] = system: A7r5 aortic smooth muscle cells; conditions: cited from earlier work
[5] = system: restenotic lesions after balloon angioplasty; experiment: Restenosis after balloon angioplasty, ceramide delivered in solution by infusion-type catheter; assay type: in vivo
Text: It is noted that infusion-type catheters have the advantage to deliver ceramide in a BSA vehicle at a discrete dose to the site of arterial injury. It was thus determined whether ceramide delivered by solution using an infusion-type catheter is also effective in reducing restenosis as ceramide delivered using a catheter with a gel coated balloon tip. The balloon at the tip of a 4F arterial bilumen irrigation embolectomy catheter was inflated to a diameter equivalent to that of the earlier experiments. Three infusions of 10 μM C6-ceramide for 1 minute each reduced restenosis after balloon angioplasty by 39%. Dihydro-C6-ceramide at an equivalent dose had no effect upon restenotic lesions. These studies further support the novelty and efficacy of ceramide-coated balloon catheters as intra-arterial site-specific delivery devices.

[6] = system: restenosis / thrombus formation; experiment: Anticoagulation therapy (Lovenox) and thrombus formation with ceramide balloon angioplasty; assay type: in vivo; conditions: ceramide-treated balloon angioplasty
Text: To prevent thrombus formation, patients routinely receive anti-coagulants prior to percutaneous transluminal coronary angioplasty. Thus, the consequences of anticoagulation therapy on the effectiveness of ceramide therapy were investigated.

PKBα = PKBα phosphorylation in excised carotid arteries after angioplasty (Western blot); assay type: in vivo; conditions: ceramide-coated balloon angioplasty, rabbit carotid arteries
Description: as §1, §2

[7] = Ceramide transfer from balloon catheter to carotid artery ([3H]C6-ceramide tracer, TLC, in situ autoradiography); assay type: in vivo, rabbit
Description: The inability of experimentally effective therapies to succeed in clinical trials is often the consequence of sub-optimal doses of therapeutics being delivered to the site of injury for the appropriate duration. Moreover, the efficacy of therapy may be a consequence of biomechanical force transferring ceramide from the inflated balloon to the site of vascular lesions. Therefore, experiments were conducted to quantify ceramide transfer between the balloon and the carotid artery; the pharmacokinetics of ceramide transfer and delivery from the balloon catheter to the damaged artery was assessed. Using [^3H]C6-ceramide as a tracer, it was calculated that 70±10 nmol of C6-ceramide was applied to the balloon as a gel from a solution of 5 μmol of C6-ceramide. […] This translates to roughly 58 nmol of C6-ceramide being transferred from the balloon catheter during the angioplasty procedure. To test whether inflation of the balloon within the carotid artery was essential for optimal transfer of the ceramide, the surgical procedure was performed using noninflated balloons. The recovered ceramide mass on the inserted but noninflated balloon was 14±3 nmol. Rabbit carotid arteries treated with radiolabeled lipid were homogenized, and lipid products were separated by thin-layer chromatography (TLC) (FIG. 3A). The mass of intact ceramide isolated 15 minutes after angioplasty was 2.7±0.4 nmol for inflated balloon treatments and 0.7±0.2 nmol for noninflated balloon treatments. […] As the transferred ceramide was initially delivered to 0.0365 cm^3 of carotid artery luminal volume, the effective concentration of ceramide at the site of balloon injury is estimated to be 1.5 mmol/L. Thus, an effective and reproducible dose of ceramide can be delivered to the damaged artery as a consequence of the balloon inflation.
In situ autoradiography was utilized to document arterial penetrance for [^3H]C6-ceramide transferred from the balloon catheter after angioplasty (FIGS. 3B through 3D). […] This increase in pixel intensity reflects an increase in intact ceramide, as at this time point 89±4% of the radiolabel comigrates with authentic C6-ceramide standards. Pixel intensity was more intense in inflated (panel C) versus noninflated (panel D) arteries. Expressed as pixel density per square millimeter for 10 randomly selected blocks with background values subtracted, medial staining was increased 4.7±0.2-fold for ceramide-coated inflated versus noninflated balloons. Again, this supports the conclusion that balloon inflation leads to maximal delivery and penetrance.
The degradation of the rapidly intercalated radiolabeled ceramide by TLC was also assessed. For the 15-minute postangioplasty time point, 89±4% of the TLC-separated lipid comigrated with authentic C6-ceramide standards. This corresponded to a recovered mass of 2.7±0.4 mnol of ceramide. At 60 minutes after angioplasty, 1.3±0.6 nmol of ceramide was recovered. Thus, 50% radiolabel can still be recovered as intact ceramide in 1 hour. This decrease in ceramide mass corresponded to an increase in TLC-separated gangliosides and cerebrosides but not sphingosines.

neointimal hyperplasia = experiment: Angioplasty-induced injury, other cell-permeable ceramide derivatives; conditions: in vivo
Text: Other cell-permeable ceramide derivatives can also limit neointimal hyperplasia.

[8] = system: primary VSM isolated from rabbit carotid arteries; experiment: Apoptosis by fluorescence-activated cell sorting after propidium iodide staining; assay type: cell-based; conditions: 100 nM
Text: Ceramide treatment correlated with growth arrest at G0G1and not apoptosis in these smooth muscle-like pericytes. […] Thus, the therapeutic efficacy of cell-perneable ceramide in restenosis includes its ability to arrest VSM growth without inducing significant apoptosis.

[9] = 15 minutes after angioplasty, inflated balloon

## CCCCCCCCCCCCC/C=C/[C@@H](O)[C@H](CO)NC(=O)CCCCC [C6-ceramide]
[1]
  percentage of PCNA positive cells: 0.6%±0.2%
[2]
  effect on tyrosine kinase receptor- and G-protein receptor-linked mitogenesis: inhibit
[3]
  effect on neointimal hyperplasia / restenosis after balloon injury: significantly reduced the neointimal hyperplasia; also recorded: blocked neointimal hyperplasia
  inhibition of balloon-induced neointimal formation (reduction of the neointimal/medial ratio): 92%
ERK2
  phosphorylation state of ERK2: reduced below basal activation levels; also recorded: diminished
[4]
  effect on tyrosine kinase receptor- and G-protein receptor-linked mitogenesis: inhibit
[5]; three infusions of 10 μM for 1 minute each, BSA vehicle
  reduction of restenosis after balloon angioplasty: 39%
[6]
  thrombus formation: Neither ceramide- nor vehicle-treated balloon angioplasty induced thrombus formation
PKBα
  phosphorylation state of PKBα: reduced below basal activation levels; also recorded: diminished
[7]; 0.0365 cm^3 carotid artery luminal volume
  effective concentration of ceramide at the site of balloon injury: ~1.5 mmol/L
[7]; 15-minute postangioplasty time point
  recovered mass of ceramide: 2.7±0.4 mnol
[7]; 15 minutes after angioplasty
  radiolabel comigrating with authentic C6-ceramide standards (TLC): 89±4%
[7]; [9]
  mass of intact ceramide isolated from carotid artery: 2.7 ± 0.4 nmol
[7]; 15 minutes after angioplasty, noninflated balloon
  mass of intact ceramide isolated from carotid artery: 0.7 ± 0.2 nmol
[7]; 60 minutes after angioplasty
  recovered mass of ceramide: 1.3 ± 0.6 nmol
[7]; after insertion and inflation
  amount remaining on the balloon: 12 ± 2 nmol
[7]; from a solution of 5 μmol of C6-ceramide, [3H] tracer
  amount applied to the balloon as a gel: 70 ± 10 nmol
[7]; in 1 hour
  radiolabel recovered as intact ceramide: 50%
[7]; inflated balloon
  amount transferred from the balloon catheter during angioplasty: roughly 58 nmol
[7]; inserted but noninflated balloon
  recovered ceramide mass on the balloon: 14 ± 3 nmol

## CCCCCCCCCCCCCCC[C@@H](O)[C@H](CO)NC(=O)CCCCC [dihydro-C6-ceramide, reference compound]
[1]
  percentage of PCNA positive cells: 1.9%±0.3%
[3]
  effect on neointimal hyperplasia / restenosis after balloon injury: did not reduce restenosis
[3]; listed as dihydro-CC6-ceramide
  effect on neointimal hyperplasia / restenosis after balloon injury: not
[5]; equivalent dose
  effect upon restenotic lesions: had no effect

## CCCCCCCCCCCCC/C=C/[C@@H](O)[C@H](CO)N(C)C [dimethylsphingosine]
Neointimal hyperplasia
  effect on angioplasty-induced injury: effective in limiting angioplasty-induced injury

## C=C1[C@@H](O)[C@@H]2O[C@]3(CC[C@H](/C=C/[C@@H](C)[C@@H]4CC(C)=C[C@@]5(O[C@H](C[C@@](C)(O)C(=O)O)CC[C@H]5O)O4)O3)CC[C@H]2O[C@@H]1[C@@H](O)C[C@H](C)[C@H]1O[C@@]2(CCCCO2)CC[C@H]1C [okadaic acid]
[8]; 24 hours
  apoptosis: 52%
[8]; 40 hours
  apoptosis: 69%±2%

## [^3H]C6-ceramide [reference compound]
[7]; 15 minutes after angioplasty
  radiolabel comigrating with authentic C6-ceramide standards (TLC): 89±4%
[7]; [9]
  arterial penetrance (in situ autoradiography): observed throughout the medial layers of the artery
[7]; autoradiography, 10 randomly selected blocks, background subtracted
  increase in medial staining (pixel density per square millimeter), inflated versus noninflated balloons: 4.7±0.2 fold
